Values joined by “and” are separate entries in the source; they are usually repeats but may differ in a detail not shown here. Equal entries are not always repeated.
Columns and labels:
METTL14 = experiment: Cellular degradation assay (Western blot), METTL14 in MOLM-13; format: cell-based, human; conditions: MOLM-13, 24 h, 2 μM compound
Procedure: (§1) MOLM-13, NOMO-1, THP-1, Kasumi-1, PC3, and DU145 cell lines were obtained from DSMZ-German Collection of Microorganisms and Cell Cultures GmbH. Cells were cultured in RPMI 1640 medium (11875093, Thermo Fisher Scientific) containing 10% FBS (16140071, Thermo Fisher Scientific) and 1% penicillin-streptomycin (15140122, Thermo Fisher Scientific) in 5% CO2 at 37 °C in a humidified incubator, with maintained cell densities at 0.5–1 × 10^6 cells/mL. All cell lines were tested negative for mycoplasma contamination (PCR-based assay by Microsynth, Switzerland).
(§2) METTL3 (and METTL14) protein degradation was monitored by Western blot. Cells were treated with the indicated concentration of PROTACs or DMSO control (0.1% (v/v)) for 24h, 37 °C with 5% CO2. Samples were then collected and lysed with RIPA buffer with added protease inhibitors (11697498001, Roche). After SDS-PAGE, proteins were transferred to a nitrocellulose membrane, blocked (with 5% milk, 0.5% BSA in TBST buffer), and incubated overnight with primary antibodies. The following antibodies were used: GAPDH (no. 2118, Cell Signaling, 1:4000), β-actin (ab8226, Abcam, 1:2000), METTL3 (ab195352, Abcam, 1:1000), and METTL14 (ab220031, Abcam, 1:1000). Membranes were scanned using an LI-COR Odyssey DLx imager after incubation with appropriate secondary antibodies (antimouse IgG IRDye 680RD (926–68072, LI-COR, 1:10000) and goat anti-Rabbit IgG IRDye 800CW (926–32211, LI-COR, 1:10000)). Densitometry was performed in Image Studio Lite software and analyzed in GraphPad Prism 9.

METTL3-14 = METTL3-14 (Homo sapiens, UniProt Q86U44); experiment: biochemical; parameters: with the full-length complex, the recombinant complex construct pFastBacDual-StrepII-GFP-TEV-METTL3-His-TEV-METTL14 was expressed; StrepII (N); GFP (N); TEV site (N); made in house; host or cells: baculovirus/Sf9 insect cells; conditions: inhibition of catalytic activity of METTL3-14, binary FRET assay
METTL3-14, sequence (Q86U44 whole entry): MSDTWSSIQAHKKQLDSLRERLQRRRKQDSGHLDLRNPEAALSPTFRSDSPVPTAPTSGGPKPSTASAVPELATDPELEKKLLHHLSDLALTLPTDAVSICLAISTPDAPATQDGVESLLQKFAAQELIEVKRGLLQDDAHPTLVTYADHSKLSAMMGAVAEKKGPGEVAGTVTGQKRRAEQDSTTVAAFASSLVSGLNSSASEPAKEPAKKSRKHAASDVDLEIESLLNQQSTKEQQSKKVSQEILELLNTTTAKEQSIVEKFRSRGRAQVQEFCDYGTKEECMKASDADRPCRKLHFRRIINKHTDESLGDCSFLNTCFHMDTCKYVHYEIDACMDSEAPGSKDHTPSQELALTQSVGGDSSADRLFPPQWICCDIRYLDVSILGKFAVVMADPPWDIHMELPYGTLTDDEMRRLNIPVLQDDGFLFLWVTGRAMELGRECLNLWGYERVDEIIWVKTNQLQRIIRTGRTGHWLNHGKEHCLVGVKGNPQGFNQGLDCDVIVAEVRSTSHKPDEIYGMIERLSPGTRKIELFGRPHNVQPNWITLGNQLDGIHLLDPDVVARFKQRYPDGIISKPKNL
METTL3-14, sequence (Q9HCE5 whole entry, further chain): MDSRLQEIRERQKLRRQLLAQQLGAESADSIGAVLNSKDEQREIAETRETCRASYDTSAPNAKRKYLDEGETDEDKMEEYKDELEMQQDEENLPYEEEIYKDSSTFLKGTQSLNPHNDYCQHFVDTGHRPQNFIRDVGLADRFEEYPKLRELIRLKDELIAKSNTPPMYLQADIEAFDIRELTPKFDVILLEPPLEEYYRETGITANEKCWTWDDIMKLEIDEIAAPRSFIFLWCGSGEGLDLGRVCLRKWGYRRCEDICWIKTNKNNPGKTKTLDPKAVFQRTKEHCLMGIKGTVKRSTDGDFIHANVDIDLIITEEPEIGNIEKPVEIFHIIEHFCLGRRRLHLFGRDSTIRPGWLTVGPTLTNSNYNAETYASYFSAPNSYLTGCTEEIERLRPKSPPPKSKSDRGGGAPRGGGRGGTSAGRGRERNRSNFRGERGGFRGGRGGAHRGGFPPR
Description: For determining the half maximal inhibitory concentration (IC50) with the full-length complex, the recombinant complex construct pFastBacDual-StrepII-GFP-TEV-METTL3-His-TEV-METTL14 was expressed using the baculovirus/Sf9 insect cell expression system and purified as described previously.[21]
The inhibitory potencies of the PROTACs for METTL3 were quantified by a homogeneous time-resolved fluorescence (HTRF)-based enzyme assay as previously described.[40]

METTL3 = biological target: T1, METTL3 (Homo sapiens, UniProt Q86U44); experiment: Cellular degradation assay (Western blot), METTL3 in MOLM-13; format: cell-based; conditions: MOLM-13, 24 h, 2 μM compound
T1 construct: METTL3–14 degradation up to 70% of the endogenous level; endogenous in cells; host or cells: MOLM-13, PC3, DU145
T1 sequence (Q86U44 2-580 limits assumed): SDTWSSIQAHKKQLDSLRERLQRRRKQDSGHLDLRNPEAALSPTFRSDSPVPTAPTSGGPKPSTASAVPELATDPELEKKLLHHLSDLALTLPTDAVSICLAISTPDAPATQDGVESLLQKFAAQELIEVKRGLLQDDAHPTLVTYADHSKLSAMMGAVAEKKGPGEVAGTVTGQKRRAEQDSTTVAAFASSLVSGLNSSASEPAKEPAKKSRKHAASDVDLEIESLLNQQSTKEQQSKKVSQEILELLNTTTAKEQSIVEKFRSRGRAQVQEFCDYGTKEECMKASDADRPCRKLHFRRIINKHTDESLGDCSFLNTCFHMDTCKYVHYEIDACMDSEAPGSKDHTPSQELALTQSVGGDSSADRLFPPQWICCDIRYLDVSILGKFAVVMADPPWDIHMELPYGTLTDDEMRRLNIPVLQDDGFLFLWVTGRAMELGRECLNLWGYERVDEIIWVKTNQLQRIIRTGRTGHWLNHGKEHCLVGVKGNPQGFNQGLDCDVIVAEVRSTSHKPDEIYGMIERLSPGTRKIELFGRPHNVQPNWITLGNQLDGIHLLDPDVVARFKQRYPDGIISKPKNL
T1 sequence (Q9HCE5 whole entry partner): as the sequence (Q9HCE5 whole entry, further chain) above
Procedure: as §1, §2

[1] = biological target: T2, ternary complex CRBN/PROTAC/METTL3–14 (Homo sapiens, UniProt Q86U44+Q96SW2); experiment: FRET-based ternary complex formation assay (TCFA); format: binding; conditions: for TCFA amplitude (mean ± SEM): Hook curve amplitude, fraction of the maximum of compound 16; for ECmax (nM) ± SD: PROTAC concentration at the maximum of the signal in the TCFA; for ECmax: TCFA, peak of the Hook curve
T2 construct: methyltransferase domains (MTD) of METTL3 (residues 354–580); His6 (N, cleaved yes); made in house; host or cells: METTL3-MTD/METTL14-MTD: baculovirus/Sf9; CRBN-TBD: E. coli Rosetta (DE3), co-expressed with BirA
T2 sequence (Q86U44 354-580): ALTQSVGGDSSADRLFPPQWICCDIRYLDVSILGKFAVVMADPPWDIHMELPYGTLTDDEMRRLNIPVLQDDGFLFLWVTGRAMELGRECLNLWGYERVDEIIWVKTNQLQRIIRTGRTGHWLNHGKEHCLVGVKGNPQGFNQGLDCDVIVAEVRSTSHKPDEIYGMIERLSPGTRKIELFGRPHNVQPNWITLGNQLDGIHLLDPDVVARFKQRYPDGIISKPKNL
T2 sequence (Q9HCE5 107-395 partner limits assumed): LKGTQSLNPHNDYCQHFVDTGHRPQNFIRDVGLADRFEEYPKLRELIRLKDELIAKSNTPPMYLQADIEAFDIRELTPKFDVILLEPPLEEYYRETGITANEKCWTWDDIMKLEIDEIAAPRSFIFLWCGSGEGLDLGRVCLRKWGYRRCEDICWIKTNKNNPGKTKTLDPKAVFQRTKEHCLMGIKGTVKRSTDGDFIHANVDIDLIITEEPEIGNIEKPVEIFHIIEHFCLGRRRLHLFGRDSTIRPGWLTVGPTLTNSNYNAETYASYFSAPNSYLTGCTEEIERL
T2 sequence (Q96SW2 318-442): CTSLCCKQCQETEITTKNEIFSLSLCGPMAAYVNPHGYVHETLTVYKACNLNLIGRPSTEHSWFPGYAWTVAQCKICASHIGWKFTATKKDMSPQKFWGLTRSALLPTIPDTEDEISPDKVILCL
Procedure: For protein expression, suspension cultures of Sf9 cells in […] medium (Thermo Fisher) were infected at a density of 2 × 10^6 mL^–1. […] The complex was further purified by size exclusion chromatography using a Superdex 200 Increase 10/300 GL column (Cytiva) in 20 mM Tris-Cl, pH 8.0, and 200 mM KCl. The complex was aliquoted and flash-frozen in liquid nitrogen and stored at −80 °C until further use.
Ternary complex formation between the PROTACs, METTL3, and CRBN was quantified by a homogeneous time-resolved fluorescence (HTRF)-based enzyme assay. […] Curves of titrations with the PROTACs were plotted in GraphPad Prism 9.5.1 and fitted with a Gaussian function, if appropriate. […] CRBN^TBD-Avi(biotin) was used at a final concentration of 10 nM. […] Anti-GST Eu^3+-labeled antibody (Cisbio, 61GSTKLB) was used at a final concentration of 0.8 nM. The final reaction volume was 20 μL in 50 mM HEPES (pH 7.5), 150 mM NaCl, 0.1% BSA, 100 mM KF. […] The ratio of the emissions [drawing 1] was considered for further analysis. […] The concentrations resulting in the maximum signal (ECmax) and the amplitudes of the Hook curves were determined from the parameters of the Gaussian fit (if appropriate) or as the coordinates of the data-point with the highest TR-FRET signal.
For the ternary complex formation assay (TCFA), one of the protein partners must have a GST-tag and the other a biotin-tag.

[2] = Cell viability assay (CellTiter-Glo) on MOLM-13; format: cell-based; conditions: human, MOLM-13 cells, average of two biological replicates; for viability at 72 h, […]: 2.5 µM
Procedure: as §1
Cell viability was determined using a CellTiter-Glo luminescent cell viability assay (Promega) based on the detection of ATP according to the manufacturer’s instructions. 100 μL of the reagent was added to each well and incubated for 10 min at room temperature. […] Background luminescence value was obtained from wells containing the CellTiter-Glo reagent and medium without cells. The resulting data was analyzed in GraphPad Prism 9.

Structure (SMILES) | MOLM-13 West. blot at 24h 2 μM comp conc. Degradation (%) of METTL14 (METTL14) | IC50 (METTL3-14) | MOLM-13 West. blot at 24h 2 μM comp conc. Degradation (%) of METTL3 (METTL3) | TCFA amplitude (mean ± SEM) [1] | ECmax (nM) ± SD [1] | ECmax [1] | viability at 72 h, 0.6 µM [2] | viability at 72 h, 1.25 µM [2] | viability at 72 h, […] [2] | viability at 72 h, 5 µM [2] | viability at 72 h, 10 µM [2]
CC1(C)CCN(Cc2ccc(N3CC(=O)NC4(CCN(c5cc(NCCCNC(=O)CCOCCOCCNc6cccc7c6C(=O)N(C6CCC(=O)NC6=O)C7=O)ncn5)CC4)C3)cc2)CC1 (centres unmarked) [Compound 1] | / ^a (Degradation <10% or stabilization) | 2470 ± 790 nM | / ^a (Degradation <10% or stabilization) | 0.03 | 6800 (n = 1) nM | 6.8 µM | – | – | – | – | –
CC1(C)CCN(Cc2ccc(N3CC(=O)NC4(CCN(c5cc(NCCCNC(=O)CCOCCOCCOCCNc6cccc7c6C(=O)N(C6CCC(=O)NC6=O)C7=O)ncn5)CC4)C3)cc2)CC1 (centres unmarked) [Compound 2] | / (Degradation <10% or stabilization) | 1060 ± 220 nM | / (Degradation <10% or stabilization) | 0.3 ± 0.1 | 2800 ± 280 nM | 2.8 µM | – | – | – | – | –
CC1(C)CCN(Cc2ccc(N3CC(=O)NC4(CCN(c5cc(NCCCNC(=O)CCOCCOCCOCCOCCNc6cccc7c6C(=O)N(C6CCC(=O)NC6=O)C7=O)ncn5)CC4)C3)cc2)CC1 (centres unmarked) [Compound 3] | / (Degradation <10% or stabilization) | 590 ± 130 nM | / (Degradation <10% or stabilization) | 0.3 ± 0.2 | 1900 (n = 1) nM | 1.9 µM | – | – | – | – | –
CC1(C)CCN(Cc2ccc(N3CC(=O)NC4(CCN(c5cc(NCCCNC(=O)CCOCCOCCOCCOCCOCCNc6cccc7c6C(=O)N(C6CCC(=O)NC6=O)C7=O)ncn5)CC4)C3)cc2)CC1 (centres unmarked) [Compound 4] | / (Degradation <10% or stabilization) | 640 ± 120 nM | / (Degradation <10% or stabilization) | 0.4 | 2000 (n = 1) nM | 2.0 µM | – | – | – | – | –
CC1(C)CCN(Cc2ccc(N3CC(=O)NC4(CCN(c5cc(NCCCNC(=O)CCCCCCCCNc6cccc7c6CN(C6CCC(=O)NC6=O)C7=O)ncn5)CC4)C3)cc2)CC1 (centres unmarked) [Compound 5] | / (Degradation <10% or stabilization) | 260 ± 30 nM | / (Degradation <10% or stabilization) | 0.7 ± 0.1 | 660 ± 20 nM | – | – | – | – | – | –
CC1(C)CCN(Cc2ccc(N3CC(=O)NC4(CCN(c5cc(NCCCNC(=O)CCCCCCCCCCNc6cccc7c6CN(C6CCC(=O)NC6=O)C7=O)ncn5)CC4)C3)cc2)CC1 (centres unmarked) [Compound 6] | / (Degradation <10% or stabilization) | 520 ± 60 nM | / (Degradation <10% or stabilization) | 0.4 | 3600 (n = 1) nM | – | – | – | – | – | –
CC1(C)CCN(Cc2ccc(N3CC(=O)NC4(CCN(c5cc(NCCCNC(=O)CCCCCCCCCCCCCCNc6cccc7c6CN(C6CCC(=O)NC6=O)C7=O)ncn5)CC4)C3)cc2)CC1 (centres unmarked) [Compound 7] | / (Degradation <10% or stabilization) | 1220 ± 90 nM | / (Degradation <10% or stabilization) | 0.1 | 5300 (n = 1) nM | – | – | – | – | – | –
CC1(C)CCN(Cc2cc(F)c(N3CC(=O)NC4(CCN(c5cc(NCC6CCN(C(=O)CNc7cccc8c7C(=O)N(C7CCC(=O)NC7=O)C8=O)CC6)ncn5)CC4)C3)cc2F)CC1 (centres unmarked) [Compound 21] | 23 ± 9% | – | 21% and 21 ± 9% | 1.3 ± 0.1 | 60 ± 30 nM | 0.06 µM | 104% | 105% | 110% | 110% | 102%
CC1(C)CCN(Cc2cc(F)c(N3CC(=O)NC4(CCN(c5cc(NCc6ccc(N7CCN(c8cccc9c8C(=O)N(C8CCC(=O)NC8=O)C9=O)CC7)cc6)ncn5)CC4)C3)cc2F)CC1 (centres unmarked) [Compound 34] | < 10% | – | – | 0.2 ± 0.1 | 120 ± 30 nM | – | 95.8% | 97.3% | 96.3% | 99.2% | 101%
CC1(C)CCN(Cc2cc(F)c(N3CC(=O)NC4(CCN(c5cc(NCC6CCN(C(=O)CN7CCN(c8cccc9c8C(=O)N(C8CCC(=O)NC8=O)C9=O)CC7)CC6)ncn5)CC4)C3)cc2F)CC1 (centres unmarked) [Compound 35] | 25 ± 3% | – | 21% and 21 ± 11% | 0.7 ± 0.2 | 20 ± 0 nM | – | – | – | – | – | 105%

— article PMC10900215 (JACS Au, 2024)
